From ChEMBL document CHEMBL5728360, “Oxazole derivatives for use in the treatment of cancer” (2021)

Test: Biochemical Assay : 5 μl WT full length PAICS (final assay concentration, fac, 2.5 nM) in basic buffer, added to black, non-binding, 384-well plates (Corning #3575), columns 1 to 22. 5 μl basic buffer was added to columns 23+24 (negative control). PAICS stock at 31.9 μM from the PI's lab (Steve Firestine). Basic buffer contained 50 mM Tris-HCl pH8 and 0.5 mM EDTA, fac.1 μl compound in 100% DMSO added per well, or 1 μl 100% DMSO to positive controls (columns 1+2) and negative controls (columns 23+24). Final assay top concentration of compound either 1 mM or 30-μM, serially diluted with half-log dilutions across the plate in duplicate (one 10-point concentration response curve across wells 3 to 12, another across 13 to 22). Compounds pre-incubated with PAICS enzyme for 30 mins at RT. 2 μl CAIR added (fac 10 μM) in basic buffer plus 25 mM MgCl2 and 50 mM KHCO3 fac to all wells. CAIR stock 50 mM from Steve Firestine's lab. 1 hr RT incubation for AIR-CAIR equilibration. NB: ˜50% CAIR is decarboxylated during equilibration therefore 5 μM remains for the synthetase reaction.2 μl ATP/aspartic acid added (fac 30 μM/180 μM) in reaction buffer to all wells. 30 mins RT incubation for appropriate level of ATP turnover. […]

IC50: > 100 nM
Compound: Nc1nc(C(=O)Nc2cc(N3CCN(C(=O)OCC4CNC4)CC3)ccc2Cl)co1
